Data from paper PMC9533862 (Antiviral Research, 2010).
Where “and” joins values, the source holds several entries; their conditions need not be identical. Equal entries are not always repeated. Where two headings read alike, the source gives them in different places.

What was measured:
[1] = tested on: vaccinia virus (strain Copenhagen); format: cell-based
in vitro = conditions: human, CC50, HeLa cell monolayers; 24 h incubation; WST-1
[2] = tested on: vaccinia virus (strain Copenhagen); assay: microbe, parasite or virus in culture; format: cell-based
HeLa cells = conditions: HeLa cell monolayers; 24 h incubation; WST-1
[3] = tested on: vaccinia virus protein expression (D12, G8, H3); format: cell-based; conditions: 2 μM
[4] = tested on: vaccinia virus Western Reserve (WR) strain; assay: microbe, parasite or virus in culture; format: cell-based
[5] = tested on: vaccinia virus (strain Copenhagen); format: cell-based; conditions: 0.2 μM
[6] = tested on: Plasmodium vinckei petteri; conditions: mice; ref Adovelande and Schrevel, 1996; cited from earlier work
[7] = tested on: vaccinia virus (strain Copenhagen); format: cell-based; conditions: 0.2 μM; remark: listed apart in the source
[8] = tested on: vaccinia virus gene transcription (D12, A1, A17); format: cell-based; conditions: 2 μM
myxoma virus = format: cell-based; conditions: HeLa cells, 2 μM, MOI 0.1
[9] = tested on: vaccinia virus DNA replication; format: cell-based
vaccinia virus = conditions: previously reported against vaccinia; ref Yang et al., 2005; cited from earlier work

Q: For `Nc1ccn(C[C@@H](CO)OCP(=O)(O)O)c(=O)n1` [Cidofovir], which “reduction in virus titres” value [1] is on record?
A: no effect on vaccinia replication

Q: What about the CC50 (in vitro) of the same molecule?
A: > 1000 µM

Q: What about the IC50 ([2]; Orthopoxvirus vaccinia, HeLa) of the same molecule?
A: ~110 µM

Q: What does the source list for `C/C=C/[C@H]1O[C@@](O)([C@@H](C)[C@H](O)[C@H](C)[C@H]2OC(=O)/C(OC)=C/C(C)=C/[C@@H](C)[C@@H](O)[C@@H](CC)[C@@H](O)[C@H](C)C/C(C)=C/C=C/[C@@H]2OC)C[C@@H](O[C@H]2C[C@@H](O)[C@H](OC(N)=O)[C@@H](C)O2)[C@@H]1C` [Concanamycin A]?
A: CC50 (in vitro): 13.5 ± 5.7 µM; Selectivity index [2]: 7941; IC50 ([2]; Orthopoxvirus vaccinia, HeLa): ~0.0017 µM

Q: Which CC50 (HeLa cells) does the source give for `C/C=C/[C@H]1O[C@@](O)([C@@H](C)[C@H](O)[C@H](C)[C@H]2OC(=O)/C(OC)=C/C(C)=C/[C@@H](C)[C@@H](O)[C@@H](C)[C@@H](O)[C@H](C)C/C(C)=C/C=C/[C@@H]2OC)C[C@@H](O[C@H]2C[C@@H](O)[C@H](OC(N)=O)[C@@H](C)O2)[C@@H]1C` [Concanamycin B] here?
A: 21.4 ± 0.6 µM

Q: What about the IC50 [2] of the same molecule?
A: ~0.011 µM and 0.011 µM

Q: With `C/C=C/[C@H]1O[C@@](O)([C@@H](C)[C@H](O)[C@H](C)[C@H]2OC(=O)/C(OC)=C/C(C)=C/[C@@H](C)[C@@H](O)[C@@H](CC)[C@@H](O)[C@H](C)C/C(C)=C/C=C/[C@@H]2OC)C[C@@H](O[C@H]2C[C@@H](O)[C@H](O)[C@@H](C)O2)[C@@H]1C` [Concanamycin C] as the molecule, how does the CC50 (HeLa cells) read?
A: 15.6 ± 3.2 µM

Q: What about the IC50 [2] of the same molecule?
A: ~0.0028 µM and 0.0028 µM

Q: Which results are given for `CC[C@@]1([C@@H]2O[C@@H]([C@H]3O[C@@](O)(CO)[C@H](C)C[C@@H]3C)C[C@@H]2C)CC[C@H]([C@]2(C)CC[C@]3(C[C@H](O)[C@@H](C)[C@@H]([C@@H](C)[C@@H](OC)[C@H](C)C(=O)O)O3)O2)O1` [Monensin]?
A: reduction in virus titres [1]: approximately 20 fold; CC50 (in vitro): 23 ± 2.9 µM; Selectivity index [2]: 1065; IC50 ([2]; Orthopoxvirus vaccinia, HeLa): ~0.0216 µM

Q: Which results are given for `CO[C@@H]1C[C@@H](C[C@H]2CC[C@H](C)[C@H]([C@@H](C)C(=O)O)O2)O[C@]2(O[C@](C)([C@H]3CC[C@@](C)([C@@H]4O[C@@H]([C@H]5O[C@@](O)(CO)[C@H](C)C[C@@H]5C)C[C@@H]4C)O3)C[C@H]2C)[C@@H]1C` [Nigericin]?
A: D12 (early) protein expression [3]: partially inhibited; G8 (intermediate) protein expression [3]: very little G8 detected; H3 (late) protein expression [3]: unable to detect H3 protein; Selectivity index [4]: 421 (WR); IC50 ([4]; Vaccinia virus Western Reserve, HeLa): ~0.0195 µM; reduction of virus replication, compound added 4 hpi [1]: ~1600 fold; vaccinia replication after removal of compound at 1 hpi [1]: vaccinia replication approached the level of untreated controls; decrease in viral titres ([1]; 0.2 μM): ~10 fold; decrease in viral titres [5]: ~10 fold; dosages at which toxicity was observed [6]: above 10 mg kg^−1; decrease in viral titres [7]: ~10 fold; reduction of A1 (intermediate) transcript expression [8]: ~94%; reduction of A17 (late) transcript expression [8]: ~98%; reduction of D12 (early) transcript expression [8]: ~82%; Selectivity index [2]: 1038 (Cop); IC50 ([2]; Orthopoxvirus vaccinia, HeLa): ~0.0079 µM; reduction in virus titres (myxoma virus): 676 fold; abundance of the A1 gene at 8 hpi (viral DNA replication) ([9]; 2 μM): no significant increase in the abundance of the A1 gene

Q: With `O=C(NN1C(=O)[C@@H]2[C@@H]3C=C[C@@H]([C@H]4C[C@@H]34)[C@@H]2C1=O)c1ccc(C(F)(F)F)cc1` [ST-246] as the molecule, how does the “reduction in virus titres” value [1] read?
A: approximately 7.4 fold

Q: What about the CC50 (in vitro) of the same molecule?
A: > 1000 µM

Q: And the IC50 (vaccinia virus)?
A: 0.01 µM

Q: What about the IC50 ([2]; Orthopoxvirus vaccinia, HeLa) of the same molecule?
A: ~0.0094 µM

Q: With `Nc1ccn([C@@H]2O[C@H](CO)[C@@H](O)[C@@H]2O)c(=O)n1` [araC, cytosine arabinoside] as the molecule, how does the “abundance of the A1 gene at 8 hpi (viral DNA replication)” value ([9]; 50 μg/mL) read?
A: no significant increase in the abundance of the A1 gene
